Patent US20090131309A1, “ICA512 COUPLES INSULIN SECRETION AND GENE EXPRESSION IN BETA-CELLS” (Technische Universität Dresden Medizinizche Fakultät Carl …, priority 2004, published 2009)

What was measured:
Type in all cases: cell-based, rat
pro-ICA512 = test: Immunoblot for pro-ICA512 and ICA512-TMF in INS-1 cells; settings: 60 μM Calpeptin
Method: Culture of INS-1 cells. INS-1 cells were grown as described^27. In some instances cells were pre-incubated for 1 hour in resting buffer (0 mM glucose, 5 mM KCl) and then for 2 or 6 hours in resting or stimulating (25 mM glucose, 55 mM KCl) buffers as described^7. Calpeptin (Calbiochem) was added in the last 15 minutes of the pre-incubation, and then for the entire following period before cells were harvested. Cells were stimulated with 20 nM human growth hormone (hGH) for 20 minutes following 18 hours incubation in low serum medium (LSM) containing RPMI-1640, 11 mM glucose, 0.5% FBS 25 mM HEPES, 1% penicillin-streptomycin and 0.05 mM β-mercaptoethanol. After washing, cells were either harvested or incubated in LSM for 6 additional hours. For immunoprecipitation cells were collected 1 hour after stimulation with hGH.
Cell extracts and western blotting. INS-1 cells and pancreatic islets were harvested at 4° C. in RIPA buffer [50 mM Tris-HCl at pH 8.0, 150 mM NaCl, 1% NP-40, 0.1% SDS, 0.5% sodium deoxycholate, and 1× protease inhibitor cocktail (Sigma)] to obtain total extracts. Insoluble material was removed by centrifugation. Cytosolic and nuclear extracts were prepared using the NE-PER Nuclear and Cytoplasmic Extraction Reagents (Pierce). Proteins were separated by 8-10% SDS-PAGE and immunoblotted with the following antibodies: mouse monoclonals anti-ICA512^7, anti-STAT5 (Santa Cruz), anti-γ-tubulin and anti-HA (Sigma); rabbit anti-PY-STAT5 and anti-STAT3 (Cell Signaling); affinity purified goat anti-GFP IgGs. Chemiluminescence was developed using the Supersignal West Pico or Femto kits (Pierce) and detected with a LAS 3000 Bioimaging System (Fuji). Protein signals were quantified with the Image Gauge v3.45 software (Fuji). Half the amount of nuclear extract proteins were immunoblotted relative to total and cytosolic extract proteins.

INS-1 cells = test: Nuclear levels of ICA512-CCF-GFP in INS-1 cells (nuclear extracts, confocal imaging); settings: ICA512-GFP INS-1 cells; 60 μM calpeptin
Method: Cell extracts and western blotting. Wild type and transfected INS-1 cells and rat pancreatic islets (350-450) were pre-incubated for 60 minutes in resting buffer containing 0 mM glucose and 5 mM KCl and then incubated for various times in fresh resting or stimulating buffer including 25 mM glucose and 55 mM KCl, as previously described (7). The protease inhibitors calpeptin, MG-132, L-685,458 (Calbiochem, La Jolla, Calif.) were added in the last 15 minutes of the pre-incubation, and then for the entire following period before cells were harvested. Next, the cells were washed with ice cold PBS, and extracted in lysis buffer (10 mM Tris-HCl at pH 8.0, 140 mM NaCl, 1% Triton X-100, 1 mM EDTA, 1 mM PMSF, and 1% protease inhibitor cocktail (Sigma, St. Louis, Mo.) at 4° C. Cytosolic and nuclear extracts were prepared using the NE-PER Nuclear and Cytoplasmic Extraction Reagents (Pierce, Rockford, Ill.) in accordance with the manufacturer's instructions. Protein concentration was measured using the Bio-Rad Protein Assay Reagent (Bio-Rad, Hercules, Calif.). Equivalent amount of protein was separated by 8-10% SDS-PAGE, except for nuclear extracts, in which case half of the protein were loaded compared to the corresponding cytosolic extracts. […] Quantitation of protein signals was performed with the Image Gauge v3.45 software (Fuji). […]

Insulin mRNA = Insulin mRNA levels by real-time PCR in INS-1 cells; settings: 40 μM calpeptin; 2 hrs after 6 hrs stimulation and later; vs cells stimulated without calpeptin
Method: Time-course stimulation of INS-1 cells. INS-1 ceils were incubated for 1 hr. in resting buffer (2.8 mM glucose and 5 mM KCl), then for 6 hrs. in resting or stimulating buffer, with or without 40 μM calpeptin, and then again in resting buffer for up to 24 hrs. Total RNA for real-time PCR was collected at time 0, 2 and 6 hrs. during stimulation and at 2, 6, 12 and 24 hrs. during the following resting period.
Real-time PCR. Total RNA from INS-1 cells was isolated with Trizol (Invitrogen, Karlsruhe, Germany) according to the manufacturer's protocol. 1 μg of total RNA was used for the reverse transcriptase reaction, with 2 μM specific antisense primers for […] and insulin, as described (31). mRNA expression was measured by quantitative real-time PCR using the Brilliant SYBR Green QPCR (Stratagene, La Jolla, Calif.) with an Mx4000 Multiplex Quantitative Real Time PCR System (Stratagene).

For `CCCC[C@@H](C=O)NC(=O)[C@H](CC(C)C)NC(=O)OCc1ccccc1` [calpeptin], the “rapid induction of pro-ICA512” value (pro-ICA512; cells stimulated for 2 hours) was “did not prevent the rapid induction of pro-ICA512”, the “greater induction of pro-ICA512 and decrease of ICA512-TMF” value (pro-ICA512; cells stimulated for 6 hours) was “partially inhibited” and the “enrichment of 55 kD ICA512-CCF-GFP in nuclear fractions of stimulated cells” value (INS-1 cells) was “in a calpeptin-sensitive manner”. For the same compound, the “insulin mRNA reduction” value (Insulin mRNA) was roughly 40%.
